From US20110257204A1, “Penciclovir or Famciclovir for Treatment of Recurrent Genital Herpes with a One-Day Application” (priority 2005, published 2011)
Where two headings read alike, the source gives them in different places.

What was measured:
[1] = system: recurrent genital herpes lesions; conditions: previous trial; clinic-initiated treatment, low dose 125 mg twice a day for five days; cited from earlier work
[2] = patients receiving famciclovir in earlier studies; cited from earlier work
[3] = system: recurrent genital herpes lesions; type: in vivo, human; conditions: for Time to healing of all lesions (median) / Proportion of aborted lesions: ITT; for Time to healing of all lesions (median): aborted lesions assigned time to healing of zero; for Time to healing of all lesions (median) / Proportion of aborted lesions / Time to healing of non-aborted lesions (median): famciclovir 1,000 mg b.i.d. for one day; for Hazard ratio, time to healing of non-aborted lesions: famciclovir 1,000 mg b.i.d. one day vs placebo
Method: The multi-center, multi-country, randomized, double-blind parallel-group, placebo controlled study is conducted to assess the efficacy and safety of a patient-initiated one-day treatment with famciclovir ([…]) 1,000 mg, twice a day, in patients with recurrent genital herpes. Approximately 450 eligible patients are randomized in a 1:1 ratio to receive either famciclovir (1,000 mg, twice a day) or matching placebo for one day. Patients are instructed to obtain a viral sample and initiate treatment within six hours of prodrome and/or recurrence of genital herpes lesions. All patients are required to return for clinic visits for observation of lesions on Days 2 and 3. Patients with lesions will continue with clinic visits on Days 4 and 5, then every other day until it is deemed that lesion healing has occurred however not to exceed Day 14. The following Table 1 represents the study design. Each patient receives either Famciclovir 2,000 mg [1,000 mg (4×250 mg capsules)] orally or placebo (4×250 mg matching placebo capsules) orally twice in one day. Study medication is to be administered twice in one day (during normal waking hours). One-day equals to 24 hours, if the patent starts a first dose in the PM the second should be taken upon waking in the AM. The first dose is taken within six hours of prodrome and/or genital herpes lesion occurrence. Within 6 hours of recurrence of either genital herpes symptom onset and/or lesion and prior to initiating therapy, patients obtain a viral sample for PCR at Visit 1. The sample is brought to the clinic at Visit 2. Patients maintain a diary to assess and record appearance/stage and location of lesion. From Visit 2 onwards, physicals are performed by clinician who examines genitalia for herpes lesions. Patients with lesions will continue with clinic visit on Days 4 (Visit 5) and 5 (Visit 6) then every other day until clinician investigator deems that the lesion healing has occurred however not to exceed Day 14. Should patients only experience symptoms, without onset of herpes lesion, these patients will return for clinic visits until resolution of symptoms. The primary efficacy variable refers to the investigator-assessed time to healing (re-epithelization, erythema may be present) of all non-aborted genital herpes lesions from the time of the first dose of study medication. Non-aborted lesions refer to all lesions requiring re-epithelization: lesions which undergo vesicular, ulcer/soft crust, hard crust formation. […] Primary efficacy variable is analyzed using the proportional hazards model, with treatment, gender and study center as explanatory variables, for patients over the modified ITT population. The Efron approximate likelihood method is used for resolution of ties. The 95% confidence intervals for the hazard ratio and median times to healing is calculated. The time to healing based on investigator-assessment (with aborted lesions assigned a time of zero) is analyzed on the PCR-positive and the ITT populations. A proportional hazards model is used in analysis, with treatment, gender, and study center as explanatory variables. The Efron approximate likelihood method is used for resolution of ties. A 95% confidence interval for the hazard ratio and median times to healing is calculated. Covariates and interactions listed for the primary efficacy variable are assessed separately by adding their terms into the proportional hazards model. The time to resolution of each symptom, as well as the time to resolution of all symptoms, will be analyzed using a proportional hazards model with treatment, gender, and study center as explanatory variables, over the ITT population. The proportion of patients reporting each symptom is presented descriptively, and compared between treatments using the Chochran-Mantel-Haenszel 9CHM) test, stratified by gender and study center, over the ITT population. […]

[4] = regardless of the dose given; cited from earlier work

SMILES: CC(=O)OCC(CCn1cnc2cnc(N)nc21)COC(C)=O [famciclovir, 9-(4-acetoxy-3-acetoxymethylbut-1-yl)-2-aminopurine]
- Hazard ratio between famciclovir and placebo for time to healing [1]: 1.48
- Most commonly reported adverse events [2]: headache and nausea
- Time to healing of all lesions (median) [3]: 3.5 days
- Time to healing of all lesions (median) ([3]; listed as Famciclovir): 4.3 days
- Proportion of aborted lesions [3]: 23.3%
- Proportion of aborted lesions ([3]; listed as Famciclovir): 23.3%
- Time to healing of non-aborted lesions (median) ([3]; Modified ITT, oral, patient-initiated within 6 hours): 4.3 days
- Hazard ratio, time to healing of non-aborted lesions ([3]; Modified ITT, proportional hazards model): 1.64
- Time to healing of non-aborted lesions (median) ([3]; Per Protocol): 4.3 days
- Hazard ratio, time to healing of non-aborted lesions ([3]; Per Protocol): 1.72
- Reduction of median time to healing of recurrent genital herpes lesions compared to placebo ([3]; famciclovir 1,000 mg twice a day, one day, immunocompetent patients, non-aborted lesions): two
- Bioavailability [4]: 77%
